The test system of data set [1] is rat mixed hippocampal cultures. The experiment in a line: Titration of 3-NP for neurotoxic effects, MTT viability. The class given is cell-based. The conditions noted are these: 3 mM 3-NP, 18 hours. Here is the method:
FIG. 3 is a bar graph showing the effect of a series of 3-nitropropionic acid (3-NP) concentrations (0.5-10 mM) on survival of mixed hippocampal cell cultures in a [3-(4,5-dimethylthiazol-2-yl)-2,5-diphenyl tetrazolium bromide] (MTT) viability assay. Absorbance at 595 nm (corresponding to the absorbance of the reduced MTT formazan product) is directly proportional to cell viability.

Data set [2] has as its system rat mixed hippocampal cultures. The experiment in a line: 3-NP neurotoxicity assay, MTT viability, rat mixed hippocampal cultures. The conditions noted are these: for inhibition at 10 µM: Rattus norvegicus; for protection against 3-NP (FIG. 5): approximate values; for protection from oxidative damage elicited by 3-NP, in words (FIG. 4A): GPI 1046 1 μM, Resveratrol 25 μM. The format is cell-based. Here is the method:
For example, a cell viability assay can be used in a preliminary screen on a large series of compounds each of which is tested at a fixed concentration. In some embodiments, mixed hippocampal cell cultures are prepared as described in, e.g., Haughey et al. (1999), J Neurochem, 73(4):1363-1374, and Haughey et al (2004), J Neurosci, 24(1):257-268. Subsequently, the cultures are pretreated for one hour in the presence of a candidate neuroprotective agent and then incubated with a cytotoxic agent for about 18 hours. Examples of cytotoxic agents include, but are not limited to, oxidative stressors (e.g., 3-nitropropionic acid (3-NP) or H2O2), excitatory amino acids (e.g., kainate), or neurotoxic proteins (e.g., Hiv Tat, or Aβ peptides). […] The level of protection (“percent protection”) provided by the test compound at a given test concentration in vitro can be expressed as: […]
A variety of methods for determining cell viability may be used. In some embodiments, cell viability is assessed based on the “MTT” assay method described in Mosmann (1983), J Immunol Methods, 65(1-2):55-63, or a variant thereof. This assay is based on the ability of a mitochondrial dehydrogenase enzyme from viable cells to cleave the tetrazolium rings of the pale yellow MTT and form dark blue formazan crystals, which are trapped in cells and readily quantified by ELISA spectrophotometry.
(§1) We sought to evaluate the protective efficacy of a number of modified terpenoid compounds against the against many different neurotoxins, ranging from the chemotoxic 6-OHDA, NMDA, 3-nitropropionic acid (3-NP), and viral proteins such as Tat and gp120. Thus, we established an in vitro neuroprotection assay using rat mixed hippocampal cultures, in which we evaluated the protective efficacy of neuroprotective compounds disclosed herein. The oxidative stressor 3-NP was used to elicit toxicity in the rat hippocampal cultures to mimic the oxidative damage, reactive oxygen species production and ensuing neurodegeneration resulting from HIV infection. Another measure of neurotoxicity which results from HIV infection was evaluated by exposure of the hippocampal cultures to HIV-1 Tat (Li et al (2005), Neurotox Res, 8(1-2): 119-134).
(§2) Rat mixed hippocamal neuronal cultures were generated from freshly dissected rat hippocampi (embryonic day 18) in neurobasal media containing 5% fetal bovine serum and 2% B27 supplement. The cells were plated into 96 well plates at a density of 4×10^5 cells/mL and routinely used on days 11-14 following culturing. Cell viability was assessed with MTT [3-(4,5-dimethylthiazol-2-yl)-2,5-diphenyltetrazolium bromide] assay. The MTT assay is based on the ability of a mitochondrial dehydrogenase enzyme from viable cells to cleave the tetrazolium rings of the pale yellow MTT and form dark blue formazan crystals. See Mosmann (1983), J Immunol Methods, 65(1-2):55-63. These crystals are largely impermeable to cell membranes, and thus accumulate within healthy cells. The resultant formazan precipitates are solubilized with DMSO and read on a multiwell scanning spectrophotometer (ELISA reader). The number of surviving cells is directly proportional to the level of the formazan product created.
Mixed hippocampal cultures were incubated with 3-NP (0.5-10 mM) for 18 hours and then assessed for viability using an MTT assay.
(§3) Cultures were preincubated with GPI 1046 or Resveratrol for one hour prior to an 18 hour exposure to 3 mM 3-NP. […] The same neuroprotective compounds were evaluated for efficacy against HIV-1 Tat protein toxicity using the same 1 hour preincubation protocol.

For data set [3], the system named is hippocampal cultures (HIV-1 Tat toxicity). The experiment in a line: HIV-1 Tat toxicity assay, MTT viability, mixed hippocampal cultures. The class given is cell-based, rat. The conditions noted are these: Tat 500 nM; for protection from HIV-1 Tat toxicity, in words (FIG. 4B): 1 h preincubation, GPI 1046 10 μM, Resveratrol 10 μM.
Source text: as §1, §2, §3

[4] abbreviates: Table 2, vs 3 mM 3-NP 18 h, 1 h preincubation, test concentration (10 μM).
Where [5] appears, read: Table 2, vs 3 mM 3-NP 18 h, 1 h preincubation, test concentration (10 μM), read-out: % Protection.
The mark [6] stands for this setting: Table 3, 3 mM 3-NP 18 h, 1 h preincubation, test concentration (10 μM), read-out: % Protection vs 3-NP.
Where [7] appears, read: Table 3, 3 mM 3-NP 18 h, 1 h preincubation, test concentration (10 μM).
[8] abbreviates: 3 mM 3-NP 18 h, 1 h preincubation.

Where two headings read alike, the source gives them in different places.

With `O=C(O)CC[N+](=O)[O-]` [Compound 3-NP, 3-nitropropionic acid], the cytotoxicity induced in data set [1] was 25-35%. Consider `CC(=O)OC1CC2C(C)(C)CCC[C@]2(C)C2CC[C@]3(C)C(=CC(=O)O[C@H]3c3ccoc3)[C@]12C` (stereo partly shown) [DEOXODEOXYDIHYDRO- GEDUNIN, DEOXODEOXYDIHYDROGEDUNIN], for which the “% Protection” value in data set [2] (setting [4]) was 77%. Consider `CC(=O)O[C@@H]1CC2C(C)(C)CCC[C@]2(C)C2CC[C@@]3(C)[C@H](c4ccoc4)OC(=O)C4OC43[C@@]21C` (stereo partly shown) [DEOXODIHYDROGEDUNIN], for which, in data set [2] (setting [5]), the inhibition at 10 µM turned out to be 101%. With `CC(=O)O[C@@H]1CC2C(C)(C)C(=O)C=C[C@]2(C)C2CC[C@@]3(C)C(=CC(=O)O[C@@H]3c3ccoc3)[C@@]21C` (stereo partly shown) [DEOXYGEDUNIN], in data set [2] (setting [6]), the inhibition at 10 µM stood at 23%. Also, in data set [2] (setting [4]), the “% Protection” value is reported as 23%. In the case of `CC(=O)OC1C=C[C@@]2(C)C(C[C@@H](OC(C)=O)[C@@]3(C)C4=CC(=O)O[C@@H](c5ccoc5)[C@]4(C)CCC23)C1(C)C` (stereo partly shown) [DEOXYGEDUNOL ACETATE], in data set [2] (setting [5]), the inhibition at 10 µM came to 54%. Regarding `CC(=O)OC1CC2C(C)(C)[C@H](OC(C)=O)C[C@H](OC(C)=O)[C@]2(C)C2CC[C@]3(C)C(=CC(=O)O[C@@H]3c3ccoc3)[C@]12C` (stereo partly shown) [DEOXYKHIVORIN], the inhibition at 10 µM in data set [2] (setting [5]) and in data set [2] (setting [6]) was 36% each time. With `COC(=O)[C@@H]1OC(=O)C2OC23[C@@]1(C)CCC1[C@]2(C)C(C[C@@H](O)[C@]13C)C(C)(C)[C@H](OC(C)=O)C[C@@H]2OC(C)=O` (stereo partly shown) [DESACETYL (7)KHIVORINIC ACID, METHYL ESTER], the “% Protection” value in data set [2] (setting [4]) worked out at 58%.

As for `COC(=O)C[C@H]1C(C)(C)[C@@H](OC(C)=O)[C@@H]2CC3C4CC(=O)O[C@@H](c5ccoc5)[C@]4(C)CCC3[C@@]1(C)C2=O` (stereo partly shown) [DIHYDROFISSINOLIDE], in data set [2] (setting [6]), the inhibition at 10 µM is 12%.

Turning to `CC(=O)O[C@@H]1CC2C(C)(C)C3(CC[C@]2(C)C2CC[C@@]4(C)[C@H](c5ccoc5)OC(=O)C5OC54[C@@]21C)SCCS3` (stereo partly shown) [DIHYDROGEDUNIN ETHANEDITHIOKETAL], the “% Protection” value in data set [2] (setting [4]) is reported as 19%. With `CC(=O)O[C@@H]1CC2C(C)(C)C(=O)CC[C@]2(C)C2CC[C@@]3(C)[C@@H](c4ccoc4)OC(=O)C4OC43[C@@]21C` (stereo partly shown) [DIHYDROGEDUNIN], the inhibition at 10 µM in data set [2] (setting [5]) worked out at 28%. `CCC(C)C(=O)O[C@@H]1C[C@@]2(C)[C@H](c3ccoc3)OC(=O)CC23OC2(C)OC34[C@H](OC(=O)C(C)C)[C@@]3(O)[C@@H](OC(=O)C5(C)OC5C)[C@@]5(C)C[C@]3(O)[C@@](C)([C@H]5CC(=O)OC)C14O2` (stereo partly shown) [ENTANDROPHRAGMIN]: in data set [2] (setting [7]), the “% Protection vs 3-NP” value was 18%.

For `CC(=O)O[C@@H]1CC2C(C)(C)C(=O)C3OC3[C@]2(C)C2CC[C@@]3(C)[C@H](c4ccoc4)OC(=O)C4OC43[C@@]21C` (stereo partly shown) [EPOXYGEDUNIN], in data set [2] (setting [4]), the “% Protection” value came to 69%. Consider `COC(=O)C[C@H]1C(C)(C)[C@@H](OC(C)=O)[C@@H]2CC3=C4CC(=O)O[C@@H](c5ccoc5)[C@]4(C)CC[C@@H]3[C@@]1(C)C2=O` [FISSINOLIDE], for which, in data set [2] (setting [6]), the inhibition at 10 µM amounted to 28%.

On to `CC(=O)O[C@@H]1CC2C(C)(C)C(=O)C=C[C@]2(C)C2CC[C@@]3(C)[C@H](c4ccoc4)OC(=O)[C@H]4O[C@]43[C@@]21C` (stereo partly shown) [GEDUNIN], for which the “protection against 3-NP (FIG. 5)” value in data set [2] (3 mM 3-NP) was “about 50%”. The inhibition at 10 µM in data set [2] (setting [5]) is 40%. For the same compound, the “neuroprotection from HIV-1 Tat toxicity, in words” value in data set [3] (1-10 μM compound) is “nearly complete neuroprotection”. Also, the “dose dependence of protection from HIV-1 Tat toxicity (FIG. 7)” value in data set [3] (range of concentrations up to 10 μM) is listed as “dose dependently protected”. Consider `CC(=O)O[C@@H]1CC2C(C)(C)[C@H](O)C=C[C@]2(C)C2CC[C@@]3(C)[C@H](c4ccoc4)OC(=O)C4OC43[C@@]21C` (stereo partly shown) [GEDUNOL], for which the “% Protection” value in data set [2] (setting [4]) was 45%.

Regarding `CCC(C)(C)C(=O)C(=O)N1CCC[C@H]1C(=O)OCCCc1cccnc1` [GPI 1046, reference compound], in data set [2] (setting [8]), the “protection from oxidative damage elicited by 3-NP, in words (FIG. 4A)” value was “significantly protected”. For the same compound, the “protection from HIV-1 Tat toxicity, in words (FIG. 4B)” value in data set [3] is on record as “protected hippocampal neurons from Tat toxicity”.

As to `CC(=O)O[C@@H]1CC2C(C)(C)C=CC(=O)[C@]2(C)C2CC[C@@]3(C)[C@H](c4ccoc4)OC(=O)C4OC43[C@@]21C` (stereo partly shown) [ISOGEDUNIN], in data set [2] (setting [5]), the inhibition at 10 µM worked out at 50%. Consider `CC(=O)OC1C[C@H](OC(C)=O)[C@@]2(C)C(C[C@@H](OC(C)=O)[C@]3(C)C2CC[C@@]2(C)[C@H](c4ccoc4)OC(=O)[C@H]4O[C@]423)C1(C)C` (stereo partly shown) [KHIVORIN], for which the “protection against 3-NP, in words (FIG. 5A)” value in data set [2] (3 mM 3-NP, 10 μM of Khivorin) was “nearly complete protection”. Besides, the inhibition at 10 µM in data set [2] (setting [5]) stood at 70%. On to `COC(=O)C[C@H]1C(C)(C)C(=O)[C@@H]2CC3=C4CC(=O)O[C@@H](c5ccoc5)[C@]4(C)CC[C@@H]3[C@@]1(C)C2=O` [MEXICANOLIDE], for which the inhibition at 10 µM in data set [2] (setting [6]) was found to be 9%. Take `C=C1[C@@H]([C@@]2(C)[C@@H](OC(C)=O)CC(=O)O[C@](C)(COC(C)=O)[C@@H]2C(=O)OC)[C@@H](OC=O)[C@H](OC(=O)[C@H](O)[C@H](C)CC)[C@@]2(C)[C@H](c3ccoc3)CC(=O)[C@]12O` [PRIEURIANIN]: the inhibition at 10 µM in data set [2] (18 h, read-out: % Protection vs 3-NP) is 6%. For the compound `COC1=C[C@@H](C)[C@@H]2C[C@H]3OC(=O)C[C@H]4C(C)=C(OC)C(=O)[C@H]([C@@]2(C)C1=O)[C@@]34C` [QUASSIN], the inhibition at 10 µM in data set [2] (setting [6]) amounted to 8%. In the case of `Oc1ccc(C=Cc2cc(O)cc(O)c2)cc1` [Resveratrol, reference compound], the “protection from oxidative damage elicited by 3-NP, in words (FIG. 4A)” value in data set [2] (setting [8]) is reported as “significantly protected”. For the same compound, the “protection from HIV-1 Tat toxicity, in words (FIG. 4B)” value in data set [3] is “protected hippocampal neurons from Tat toxicity”.

Consider `CCC(C)C(=O)O[C@@H]1C[C@@]2(C)[C@H](c3ccoc3)OC(=O)CC23OC2(C)O[C@]14[C@]1(C)[C@@H](CC(=O)OC)C5(C)CC1(O)[C@](O)(C5OC(=O)C1(C)OC1C)[C@@H](OC(C)=O)[C@]34O2` (stereo partly shown) [UTILIN], for which the inhibition at 10 µM in data set [2] (setting [6]) was 16%. Turning to `C=C1C2CC[C@@]3(C)[C@H](c4ccoc4)OC(=O)C[C@]13OC1CC(=O)C(C)(C)C(CC(=O)OC)C12C` (stereo partly shown) [[…], METHYL ESTER], the “protection against 3-NP (FIG. 5)” value in data set [2] (3 mM 3-NP) is listed as “about 50%”. The inhibition at 10 µM in data set [2] (setting [5]) and in data set [2] (setting [6]) was 33% each time.

For the compound `C[C@@H]([C@H]1OC(C)(C)[C@@H](O)[C@H]1O)[C@@H]1CC[C@]2(C)C3=CC[C@H]4C(C)(C)C(=O)CC[C@]4(C)[C@H]3CC[C@@]12C` [odoratone], the “protection against 3-NP (FIG. 5)” value in data set [2] (3 mM 3-NP) is reported as 60-70%. With KHAYANTHONE, in data set [2] (setting [7]), the “% Protection vs 3-NP” value is listed as 36%. For the compound KHAYASIN C, in data set [2] (setting [7]), the “% Protection vs 3-NP” value is listed as 13%.

The record behind these values is US9289412B2, “Role of limonoid compounds as neuroprotective agents” (The Johns Hopkins University, priority 2006, dated 2016).
